Experimental findings from ChEMBL document CHEMBL1201862, “PubChem BioAssay data set” (2004) are described below.

Among the test systems are HCT-15; OVCAR-5; HCT-116; 786-0; HT-29; IGROV-1; OVCAR-3; CCRF-CEM; SN12C; NCI-H460; TK-10; UO-31; SR; MDA-N; SNB-19; RXF 393; Malme-3M; HCC 2998; EKVX; SF-295.
Holding throughout (assay): NCI tumour cell line growth inhibition, 48 h

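Five concentrations, 48 hours, 96-well plates. The concentration for 50% growth inhibition is given as GI50.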 Activity calls are given as the source filed them. No stated cut-off is given here; in the data, active = GI50 up to about 1.1 µM and inactive = higher. A value given as a limit tells only on which side of the number the result lay.

As for `CCOC(=O)C1C(=O)CC(C)(O)C(C(=O)OCC)C1c1ccc(O)c(OC)c1` (stereo not given), the GI50 in the assay with HCT-15 is greater than 100 µM; in the assay on OVCAR-5 it was > 100 µM (inactive); with HCT-116 it was > 100 µM (inactive); with 786-0, > 100 µM (inactive); in the assay on HT-29 it was > 100 µM (inactive); in the assay with IGROV-1 it was > 100 µM (inactive). Moreover, the GI50 with OVCAR-3, with CCRF-CEM, in the assay on SN12C, in the assay on NCI-H460, with TK-10 and with UO-31 was > 100 µM (inactive) in each case. Further, the GI50 with SR, in the assay on MDA-N, with SNB-19, with RXF 393, with Malme-3M and with HCC 2998 was > 100 µM (inactive) each time. For the same compound, the GI50 in the assay with EKVX and with SF-295 was > 100 µM (inactive) in each case.

As to `CC(=O)OC(C)(C)/C=C/C(=O)[C@](C)(O)[C@H]1[C@H](O)C[C@@]2(C)[C@@H]3CC=C4[C@@H](C[C@H](O)C(=O)C4(C)C)[C@]3(C)C(=O)C[C@]12C`, the GI50 with HCT-15 is less than 0.01 µM; with OVCAR-5, < 0.0246 µM (active); in the assay on HCT-116, < 0.01 µM (active); in the assay with 786-0 it was < 0.01 µM (active); with HT-29 it was < 0.01 µM (active); with IGROV-1 it was < 0.01 µM (active). The GI50 in the assay with OVCAR-3 is < 0.01 µM (active); with CCRF-CEM, < 0.01 µM (active); in the assay with SN12C, < 0.0143 µM (active); in the assay on NCI-H460 it was < 0.01 µM (active); in the assay with TK-10, < 0.01 µM (active); in the assay on UO-31 it was < 0.01 µM (active). The GI50 is < 0.01 µM (active) in the assay on SR; < 0.01 µM (active) with MDA-N; < 0.0174 µM (active) with SNB-19; < 0.01 µM (active) in the assay with RXF 393; < 0.01 µM (active) with Malme-3M; < 0.01 µM (active) with HCC 2998. Besides, the GI50 was 0.0102 µM (active) with EKVX and < 0.01 µM (active) with SF-295.

With `N=c1[nH]cnc2c1nnn2C1C=CC(COS(N)(=O)=O)C1` (stereo not given), the GI50 in the assay with HCT-15 is 6.5 µM; in the assay on OVCAR-5, 3.37 µM (inactive); in the assay with HCT-116, 5.24 µM (inactive); with 786-0, 2.19 µM (inactive); in the assay with HT-29, 7.33 µM (inactive); in the assay with IGROV-1, 14.4 µM (inactive). In addition, the GI50 is 10.7 µM (inactive) in the assay on OVCAR-3; 13.2 µM (inactive) in the assay on CCRF-CEM; 15.9 µM (inactive) in the assay with SN12C; 6.87 µM (inactive) with NCI-H460; 3.18 µM (inactive) in the assay with TK-10; 5.62 µM (inactive) with UO-31. Also, the GI50 with SR was 18 µM (inactive); in the assay with MDA-N, 3.94 µM (inactive); in the assay with SNB-19 it was 4.56 µM (inactive); in the assay on RXF 393, 8.45 µM (inactive); in the assay with Malme-3M, 15.8 µM (inactive); in the assay with HCC 2998, 6.53 µM (inactive). Moreover, the figures for the GI50 with EKVX and in the assay on SF-295 were 28.9 µM (inactive) and 16.7 µM (inactive), respectively.

Consider `O=c1c2c3c(sc2nc2n1N=CN(c1ccccc1)C2)CCCC3`, for which the GI50 is greater than 100 µM in the assay with HCT-15; > 100 µM (inactive) in the assay on OVCAR-5; > 100 µM (inactive) with HCT-116; > 100 µM (inactive) in the assay on 786-0; > 100 µM (inactive) in the assay on HT-29; > 100 µM (inactive) in the assay on IGROV-1. Further, the GI50 in the assay with OVCAR-3, in the assay on CCRF-CEM, in the assay on SN12C, in the assay with NCI-H460, with TK-10 and with UO-31 was > 100 µM (inactive) throughout. For the same compound, the GI50 in the assay with SR, in the assay on MDA-N, in the assay with SNB-19, with RXF 393, in the assay with Malme-3M and with HCC 2998 was > 100 µM (inactive) each time. The GI50 in the assay on EKVX and in the assay with SF-295 was > 100 µM (inactive) in each case.

Consider `O=[N+]([O-])c1ccc([I+]c2ccccc2)cc1`, for which the GI50 was 7.35 µM with HCT-15; 7.98 µM (inactive) in the assay with OVCAR-5; 3.77 µM (inactive) in the assay on HCT-116; 4.26 µM (inactive) with 786-0; 2.97 µM (inactive) with HT-29; 16.4 µM (inactive) in the assay on IGROV-1. Moreover, the GI50 with OVCAR-3 is 3.13 µM (inactive); with CCRF-CEM it was 2.49 µM (inactive); in the assay with SN12C, 1.61 µM (inactive); in the assay on NCI-H460, 5.52 µM (inactive); with TK-10 it was 8.91 µM (inactive); in the assay with UO-31, 6.03 µM (inactive). Also, the GI50 with SR was 2.53 µM (inactive); in the assay on MDA-N, 6.56 µM (inactive); in the assay on SNB-19, 5.52 µM (inactive); with RXF 393 it was 3.54 µM (inactive); in the assay with Malme-3M, 4.78 µM (inactive); in the assay with HCC 2998, 7.28 µM (inactive). Further, the GI50 was 15.7 µM (inactive) in the assay with EKVX and 1.27 µM (inactive) in the assay with SF-295.

Take `COc1ccc(C[C@@H]2OC3(C=CC(=O)C=C3)O[C@H]2Cc2ccc(OC)cc2)cc1`: the GI50 in the assay on HCT-15 was 0.255 µM; with OVCAR-5, 0.832 µM (active); with HCT-116, 0.133 µM (active); in the assay on 786-0 it was 0.184 µM (active); in the assay on HT-29 it was 0.766 µM (active); with IGROV-1 it was 0.317 µM (active). In addition, the GI50 is 0.673 µM (active) in the assay on OVCAR-3; 0.14 µM (active) with CCRF-CEM; 1.05 µM (active) with SN12C; 7.14 µM (inactive) in the assay with NCI-H460; 0.281 µM (active) in the assay with TK-10; 0.29 µM (active) in the assay on UO-31. Further, the GI50 in the assay with SR was 0.176 µM (active); in the assay on MDA-N it was 0.476 µM (active); in the assay on SNB-19, 1.82 µM (inactive); in the assay on RXF 393, 0.277 µM (active); in the assay with Malme-3M it was 1.51 µM (inactive); with HCC 2998, 1.52 µM (inactive). Moreover, the GI50 was 1.89 µM (inactive) in the assay with EKVX and 2.99 µM (inactive) in the assay on SF-295.

In the case of `CCN(C(=O)N[C@H](C(=O)N[C@@H](CSC)C(=O)N[C@@H](C)C(=O)OC)C(C)C)c1ccccc1`, the GI50 with HCT-15 was 17.8 µM; in the assay with OVCAR-5, 15.5 µM (inactive); in the assay with HCT-116, 16.7 µM (inactive); in the assay with 786-0 it was 17.2 µM (inactive); in the assay with HT-29 it was 13.2 µM (inactive); in the assay on IGROV-1, 10.4 µM (inactive). Moreover, the GI50 was 20 µM (inactive) with OVCAR-3; 2.94 µM (inactive) with CCRF-CEM; 17.9 µM (inactive) in the assay on SN12C; 15.8 µM (inactive) in the assay with NCI-H460; 13.6 µM (inactive) with TK-10; 17.5 µM (inactive) in the assay on UO-31. For the same compound, the GI50 was 3.83 µM (inactive) in the assay on SR; 17.3 µM (inactive) in the assay with MDA-N; 19.3 µM (inactive) in the assay on SNB-19; 17.7 µM (inactive) in the assay with RXF 393; 12.8 µM (inactive) in the assay with Malme-3M; 19.6 µM (inactive) in the assay with HCC 2998. The GI50 in the assay with EKVX is 13.5 µM (inactive); with SF-295, 17.9 µM (inactive).
